The record followed here is ChEMBL document CHEMBL1821711, “Design and synthesis of novel arylpiperazine derivatives containing the imidazole core targeting 5-HT(2A) receptor and 5-HT transporter” (J Med Chem, 2011).

The structures appear in SMILES notation.

Among the targets are D(2) dopamine receptor (Homo sapiens, UniProt P14416); D(3) dopamine receptor (Homo sapiens, UniProt P35462); Cytochrome P450 2C9 (Homo sapiens, UniProt P11712); Cytochrome P450 2D6 (Homo sapiens, UniProt P10635); Cytochrome P450 3A4 (Homo sapiens, UniProt P08684).
Data set [1] deals with T1, 5-hydroxytryptamine receptor 1A (Homo sapiens, UniProt P08908).
T1 sequence (P08908 whole entry): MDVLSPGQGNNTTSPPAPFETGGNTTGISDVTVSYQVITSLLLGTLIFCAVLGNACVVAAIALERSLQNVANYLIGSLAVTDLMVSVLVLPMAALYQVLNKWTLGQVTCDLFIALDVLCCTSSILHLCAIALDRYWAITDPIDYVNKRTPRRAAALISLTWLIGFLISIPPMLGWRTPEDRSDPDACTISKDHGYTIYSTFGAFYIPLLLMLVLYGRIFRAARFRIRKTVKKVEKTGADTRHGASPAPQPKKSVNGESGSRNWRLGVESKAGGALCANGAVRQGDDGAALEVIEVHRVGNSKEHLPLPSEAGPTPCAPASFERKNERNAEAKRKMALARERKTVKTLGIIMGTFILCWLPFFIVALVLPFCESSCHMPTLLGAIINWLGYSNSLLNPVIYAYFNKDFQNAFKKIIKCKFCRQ
Description: Inhibition of 5HT1A receptor by competition binding assay

Data set [2] addresses 5-hydroxytryptamine receptor 6 (Homo sapiens, UniProt P50406).
Description: Inhibition of 5HT6 receptor by competition binding assay
Data set [3] has as its target 5-hydroxytryptamine receptor 7 (Homo sapiens, UniProt P34969).
Description: Inhibition of 5HT7 receptor by competition binding assay
A further data set has as its target T2, D(4) dopamine receptor (Homo sapiens, UniProt P21917).
T2 sequence (P21917 whole entry): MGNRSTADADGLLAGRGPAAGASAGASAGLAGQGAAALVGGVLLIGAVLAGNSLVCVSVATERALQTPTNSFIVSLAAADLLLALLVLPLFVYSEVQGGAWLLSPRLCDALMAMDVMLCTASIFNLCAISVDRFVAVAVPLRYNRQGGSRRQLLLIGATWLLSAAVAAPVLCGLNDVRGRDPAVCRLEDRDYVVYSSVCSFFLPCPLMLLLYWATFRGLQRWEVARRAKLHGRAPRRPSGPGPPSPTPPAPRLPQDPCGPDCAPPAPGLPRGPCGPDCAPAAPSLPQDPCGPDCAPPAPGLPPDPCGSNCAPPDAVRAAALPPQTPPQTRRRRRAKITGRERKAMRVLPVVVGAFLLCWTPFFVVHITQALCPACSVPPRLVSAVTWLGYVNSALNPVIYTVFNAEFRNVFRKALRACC

The target in data set [4] is Voltage-gated inwardly rectifying potassium channel KCNH2 (Homo sapiens, UniProt Q12809).
Chain of Voltage-gated inwardly rectifying potassium channel KCNH2 (Q12809 whole entry): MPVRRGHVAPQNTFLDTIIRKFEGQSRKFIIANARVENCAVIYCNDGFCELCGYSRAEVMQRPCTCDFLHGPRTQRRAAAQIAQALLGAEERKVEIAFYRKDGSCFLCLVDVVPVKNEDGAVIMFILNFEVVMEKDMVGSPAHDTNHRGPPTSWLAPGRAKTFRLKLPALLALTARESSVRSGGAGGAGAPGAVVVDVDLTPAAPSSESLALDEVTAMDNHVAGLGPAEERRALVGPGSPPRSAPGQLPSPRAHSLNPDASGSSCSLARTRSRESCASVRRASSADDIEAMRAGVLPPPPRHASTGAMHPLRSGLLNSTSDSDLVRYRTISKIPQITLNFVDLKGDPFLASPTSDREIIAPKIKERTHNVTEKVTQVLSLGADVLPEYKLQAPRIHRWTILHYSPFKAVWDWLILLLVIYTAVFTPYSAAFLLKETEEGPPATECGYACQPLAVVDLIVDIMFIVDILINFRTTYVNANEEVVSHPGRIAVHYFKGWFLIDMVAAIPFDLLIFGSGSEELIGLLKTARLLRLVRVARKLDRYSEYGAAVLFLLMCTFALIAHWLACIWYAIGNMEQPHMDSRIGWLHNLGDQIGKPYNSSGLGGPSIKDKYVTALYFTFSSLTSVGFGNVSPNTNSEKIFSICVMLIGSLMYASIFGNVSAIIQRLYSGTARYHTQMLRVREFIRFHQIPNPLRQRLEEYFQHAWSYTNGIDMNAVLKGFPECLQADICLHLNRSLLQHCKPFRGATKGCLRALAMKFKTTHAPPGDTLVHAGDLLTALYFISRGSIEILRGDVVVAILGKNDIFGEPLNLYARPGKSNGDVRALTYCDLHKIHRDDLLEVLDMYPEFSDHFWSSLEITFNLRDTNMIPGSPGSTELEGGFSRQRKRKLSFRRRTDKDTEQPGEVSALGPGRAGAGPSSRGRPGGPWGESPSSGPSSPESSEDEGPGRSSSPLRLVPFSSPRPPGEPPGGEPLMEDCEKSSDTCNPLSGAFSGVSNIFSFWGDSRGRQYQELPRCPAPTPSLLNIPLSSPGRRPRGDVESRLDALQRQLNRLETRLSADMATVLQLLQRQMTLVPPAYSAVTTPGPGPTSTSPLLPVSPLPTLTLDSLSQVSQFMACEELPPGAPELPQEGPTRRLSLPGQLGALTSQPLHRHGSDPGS
Description: Displacement of [3H]astemizole from human ERG expressed in HEK293 cells
Data set [5] deals with T3, 5-hydroxytryptamine receptor 2C (Homo sapiens, UniProt P28335).
T3 sequence (P28335 whole entry): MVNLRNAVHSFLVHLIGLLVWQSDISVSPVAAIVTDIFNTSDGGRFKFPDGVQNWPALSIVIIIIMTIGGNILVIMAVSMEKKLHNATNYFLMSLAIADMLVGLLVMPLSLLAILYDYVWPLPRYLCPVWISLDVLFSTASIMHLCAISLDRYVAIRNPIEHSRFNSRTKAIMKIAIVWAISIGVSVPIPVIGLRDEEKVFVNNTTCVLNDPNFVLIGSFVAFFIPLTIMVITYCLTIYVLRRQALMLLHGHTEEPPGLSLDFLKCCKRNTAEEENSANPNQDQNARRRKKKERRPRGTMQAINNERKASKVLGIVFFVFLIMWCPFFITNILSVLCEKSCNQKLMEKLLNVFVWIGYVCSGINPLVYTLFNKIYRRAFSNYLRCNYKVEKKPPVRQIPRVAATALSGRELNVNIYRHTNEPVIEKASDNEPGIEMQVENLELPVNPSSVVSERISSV
Description: biochemical. The data set is classed as cell-based, CHO-K1.
Description: Displacement of [3H]mesulergine from human recombinant 5-HT2C receptor expressed in CHO-K1 cells

Another data set has as its target T4, Cytochrome P450 1A2 (Homo sapiens, UniProt P05177).
T4 sequence (P05177 whole entry): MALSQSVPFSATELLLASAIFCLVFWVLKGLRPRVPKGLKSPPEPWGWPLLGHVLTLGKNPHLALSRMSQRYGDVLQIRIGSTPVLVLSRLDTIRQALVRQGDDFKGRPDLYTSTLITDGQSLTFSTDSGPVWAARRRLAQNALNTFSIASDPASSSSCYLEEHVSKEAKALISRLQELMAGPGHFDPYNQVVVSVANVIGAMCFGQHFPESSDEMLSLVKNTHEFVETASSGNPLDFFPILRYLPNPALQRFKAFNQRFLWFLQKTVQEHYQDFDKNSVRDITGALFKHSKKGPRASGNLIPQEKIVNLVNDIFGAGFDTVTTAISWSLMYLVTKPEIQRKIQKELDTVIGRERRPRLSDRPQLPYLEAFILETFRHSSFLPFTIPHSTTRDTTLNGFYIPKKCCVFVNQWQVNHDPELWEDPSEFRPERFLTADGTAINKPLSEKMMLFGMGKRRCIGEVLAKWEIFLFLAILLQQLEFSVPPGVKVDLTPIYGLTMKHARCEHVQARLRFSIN

Another data set in a line: in vitro. The following applies: mouse, ht-22.

Chain of Cytochrome P450 2D6 (P10635 whole entry): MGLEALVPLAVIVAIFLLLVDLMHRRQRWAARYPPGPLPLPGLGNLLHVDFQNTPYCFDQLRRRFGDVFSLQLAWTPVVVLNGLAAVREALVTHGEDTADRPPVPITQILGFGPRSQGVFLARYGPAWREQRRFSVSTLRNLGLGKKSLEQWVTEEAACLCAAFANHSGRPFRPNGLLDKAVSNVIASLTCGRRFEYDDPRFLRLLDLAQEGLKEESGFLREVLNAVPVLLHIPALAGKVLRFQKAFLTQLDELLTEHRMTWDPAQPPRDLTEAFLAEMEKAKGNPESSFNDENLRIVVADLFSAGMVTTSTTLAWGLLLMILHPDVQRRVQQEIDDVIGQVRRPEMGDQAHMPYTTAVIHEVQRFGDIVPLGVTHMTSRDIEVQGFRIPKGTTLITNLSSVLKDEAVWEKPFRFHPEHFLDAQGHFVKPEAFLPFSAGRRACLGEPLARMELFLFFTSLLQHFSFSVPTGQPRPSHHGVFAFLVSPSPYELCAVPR
Chain of Cytochrome P450 2C9 (P11712 whole entry): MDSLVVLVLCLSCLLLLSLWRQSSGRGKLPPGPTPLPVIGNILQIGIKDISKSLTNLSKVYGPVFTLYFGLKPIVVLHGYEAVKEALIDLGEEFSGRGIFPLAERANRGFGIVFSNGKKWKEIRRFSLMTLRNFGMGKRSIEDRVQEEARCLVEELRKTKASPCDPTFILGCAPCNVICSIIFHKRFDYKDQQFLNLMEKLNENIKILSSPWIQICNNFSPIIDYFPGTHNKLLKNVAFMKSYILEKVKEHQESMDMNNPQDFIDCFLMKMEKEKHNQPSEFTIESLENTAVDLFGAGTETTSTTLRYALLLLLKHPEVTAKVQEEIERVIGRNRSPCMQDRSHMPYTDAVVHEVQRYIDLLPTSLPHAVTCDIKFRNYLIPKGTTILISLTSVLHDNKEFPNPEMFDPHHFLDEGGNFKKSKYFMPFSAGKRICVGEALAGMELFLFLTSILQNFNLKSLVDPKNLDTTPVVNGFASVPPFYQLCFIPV
Chain of Cytochrome P450 3A4 (P08684 whole entry): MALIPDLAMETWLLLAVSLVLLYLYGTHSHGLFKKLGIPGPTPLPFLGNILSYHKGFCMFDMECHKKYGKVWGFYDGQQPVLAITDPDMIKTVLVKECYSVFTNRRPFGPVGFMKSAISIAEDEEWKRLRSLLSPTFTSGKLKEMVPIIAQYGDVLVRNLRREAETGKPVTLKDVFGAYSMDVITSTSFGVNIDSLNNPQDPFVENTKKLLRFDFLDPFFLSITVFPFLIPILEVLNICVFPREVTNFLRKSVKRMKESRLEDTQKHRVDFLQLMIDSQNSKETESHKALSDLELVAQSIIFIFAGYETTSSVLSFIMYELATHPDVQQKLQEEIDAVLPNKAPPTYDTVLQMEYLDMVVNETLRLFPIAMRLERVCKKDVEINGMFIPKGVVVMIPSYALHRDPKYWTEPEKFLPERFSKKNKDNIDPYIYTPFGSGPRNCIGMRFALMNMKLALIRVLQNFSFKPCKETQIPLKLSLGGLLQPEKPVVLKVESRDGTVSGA
Chain of D(3) dopamine receptor (P35462 whole entry): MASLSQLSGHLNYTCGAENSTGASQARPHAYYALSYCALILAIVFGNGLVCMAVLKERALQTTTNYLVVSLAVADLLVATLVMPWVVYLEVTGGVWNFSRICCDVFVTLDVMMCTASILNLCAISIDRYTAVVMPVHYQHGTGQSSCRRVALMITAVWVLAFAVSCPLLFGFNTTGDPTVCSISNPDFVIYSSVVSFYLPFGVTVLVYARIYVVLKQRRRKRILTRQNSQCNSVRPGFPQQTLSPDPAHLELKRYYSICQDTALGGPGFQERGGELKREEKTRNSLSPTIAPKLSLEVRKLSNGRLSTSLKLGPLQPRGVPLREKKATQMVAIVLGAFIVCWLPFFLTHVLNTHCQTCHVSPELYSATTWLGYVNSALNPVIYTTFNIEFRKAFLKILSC
Chain of 5-hydroxytryptamine receptor 7 (P34969 whole entry): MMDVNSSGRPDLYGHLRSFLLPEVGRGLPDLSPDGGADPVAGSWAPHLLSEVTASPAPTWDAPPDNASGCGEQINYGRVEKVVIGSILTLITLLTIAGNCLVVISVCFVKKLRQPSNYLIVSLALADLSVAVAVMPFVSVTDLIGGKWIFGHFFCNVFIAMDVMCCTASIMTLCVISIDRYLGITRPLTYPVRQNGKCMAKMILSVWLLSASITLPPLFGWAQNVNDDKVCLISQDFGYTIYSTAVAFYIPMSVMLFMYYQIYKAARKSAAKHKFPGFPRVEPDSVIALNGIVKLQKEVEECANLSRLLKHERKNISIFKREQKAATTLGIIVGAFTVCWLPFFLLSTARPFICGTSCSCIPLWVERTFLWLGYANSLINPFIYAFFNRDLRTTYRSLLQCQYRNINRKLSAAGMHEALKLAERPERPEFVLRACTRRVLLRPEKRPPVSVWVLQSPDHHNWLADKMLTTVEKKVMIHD
Chain of D(2) dopamine receptor (P14416 whole entry): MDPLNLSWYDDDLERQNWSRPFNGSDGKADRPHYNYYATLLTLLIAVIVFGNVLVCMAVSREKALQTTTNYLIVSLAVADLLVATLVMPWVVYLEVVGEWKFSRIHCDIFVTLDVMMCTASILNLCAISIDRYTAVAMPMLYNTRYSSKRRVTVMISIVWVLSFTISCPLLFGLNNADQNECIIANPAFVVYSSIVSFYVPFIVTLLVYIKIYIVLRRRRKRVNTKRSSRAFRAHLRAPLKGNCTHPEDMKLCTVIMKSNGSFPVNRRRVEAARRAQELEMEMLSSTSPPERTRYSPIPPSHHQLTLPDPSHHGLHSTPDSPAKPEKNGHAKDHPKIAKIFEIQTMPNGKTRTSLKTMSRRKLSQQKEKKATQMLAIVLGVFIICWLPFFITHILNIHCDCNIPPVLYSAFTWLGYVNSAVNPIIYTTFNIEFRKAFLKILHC
Chain of 5-hydroxytryptamine receptor 6 (P50406 whole entry): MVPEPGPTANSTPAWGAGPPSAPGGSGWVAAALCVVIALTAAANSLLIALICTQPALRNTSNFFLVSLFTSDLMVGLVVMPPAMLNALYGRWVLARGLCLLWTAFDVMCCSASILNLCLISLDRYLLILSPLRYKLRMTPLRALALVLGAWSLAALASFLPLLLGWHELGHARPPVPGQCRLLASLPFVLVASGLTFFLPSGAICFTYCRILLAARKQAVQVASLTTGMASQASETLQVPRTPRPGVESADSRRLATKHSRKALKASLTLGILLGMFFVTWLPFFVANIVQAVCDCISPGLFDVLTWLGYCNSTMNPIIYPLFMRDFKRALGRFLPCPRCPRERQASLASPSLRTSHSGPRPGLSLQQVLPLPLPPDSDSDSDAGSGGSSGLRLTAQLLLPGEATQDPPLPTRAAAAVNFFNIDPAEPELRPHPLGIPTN
Description for Cytochrome P450 1A2: Inhibition of human recombinant CYP1A2 by luceferin-based assay
Description for Cytochrome P450 2C9: Inhibition of human recombinant CYP2C9 by luceferin-based assay
Description for Cytochrome P450 2D6: Inhibition of human recombinant CYP2D6 by luceferin-based assay
Description for Cytochrome P450 3A4: Inhibition of human recombinant CYP3A4 by luceferin-based assay
Description for D(2) dopamine receptor: Inhibition of dopamine D2 receptor by competition binding assay
Description for D(3) dopamine receptor: Inhibition of dopamine D3 receptor by competition binding assay
Description for D(4) dopamine receptor: inhibition of dopamine D4 receptor by competition binding assay
Description for in vitro: Cytotoxicity against mouse HT22 cells after 48 hrs by MTT assay

Consider `Cc1nc(C(=O)NCCN2CCN(c3cccc(Cl)c3Cl)CC2)c(C)n1-c1ccccc1`, for which the IC50 in data set [1] was determined as 0.0039 µM; in [2], 1.68 µM; in data set [3] it was 0.0068 µM; at D(2) dopamine receptor, 0.908 µM; on D(3) dopamine receptor, 2.19 µM; on D(4) dopamine receptor, 3.94 µM. This molecule also returned an IC50 in data set [4] above 10 µM.

`Cc1c(Cl)cccc1N1CCN(CCCNC(=O)c2nc(-c3ccccc3)n(-c3ccccc3)c2C)CC1`: the IC50 in data set [5] was 1.51 µM; against Cytochrome P450 1A2 it was above 20 µM; at Cytochrome P450 2C9, 2.9 µM; against Cytochrome P450 2D6, 5.4 µM; against Cytochrome P450 3A4, above 20 µM. Further, the CC50 at 48 h in “in vitro” was found to be 23.6 µM.

As to `Cc1nc(C(=O)NCCCN2CCN(c3cccc(Cl)c3Cl)CC2)c(C)n1-c1ccccc1`, the IC50 in data set [1] is 0.0049 µM; in data set [2] it was 0.136 µM; in [3] it was 0.011 µM; at D(2) dopamine receptor it was 1.37 µM; at D(3) dopamine receptor it was 0.493 µM; against D(4) dopamine receptor it was above 10 µM.

On to `Cc1c(Cl)cccc1N1CCN(CCCNC(=O)c2nc(-c3ccccc3)n(-c3ccccc3)c2Cn2cncn2)CC1`, for which the IC50 is 1.37 µM in [5]; 15.3 µM against Cytochrome P450 1A2; 3.3 µM on Cytochrome P450 2C9; 4.8 µM against Cytochrome P450 2D6; above 20 µM on Cytochrome P450 3A4. In addition, the CC50 at 48 h in the data set “in vitro” came out at 19.1 µM.

On to `Cc1cccc(N2CCN(CCCNC(=O)c3nc(C)n(-c4ccc5c(c4)OCCO5)c3C)CC2)c1C`, for which the IC50 in [5] was 4 µM; in data set [4], 8.7 µM; against Cytochrome P450 1A2 it was above 20 µM; at Cytochrome P450 2C9 it was 4.4 µM; against Cytochrome P450 2D6 it was 17.9 µM; against Cytochrome P450 3A4, above 20 µM. For the same molecule, the CC50 at 48 h in “in vitro” was 19.3 µM.
